# Laboratory results taken from a melting point compilation (Tetko et al.; mined from patent text by program, amines drawn as free bases though some values may be those of a salt).
row,SMILES,melting point
1,Clc1nc2c(c(N[C@@H]3CCC[C@H]3OCc3ccccc3)n1)SCC2,157 to 158 °C
2,O=C(NC1CCC(CCN2CCC(c3cccc4c3CCO4)CC2)CC1)C1CCOC1 (racemic),211 °C
3,CC1(c2cc(-c3cccc(CC4SC(N5CCCC5)=NC4=O)c3)ccc2O)CCCCC1 (stereo unspecified),109 to 110 °C
4,NC1=NCc2c[nH]c3cccc1c23,233 to 235 °C
5,CC(=O)SCC1CCCCCCC(C(=O)N2C(=O)OCC2Cc2ccccc2)NC1=O (stereo unspecified),65 to 66 °C
6,O=c1[nH]c2cc(Cl)ccc2n1C1CCN(Cc2cccc(-c3ccc(Cl)cc3)n2)CC1,203 to 205 °C
7,COc1ccccc1N(CCN1CCC(C(=O)c2ccc(F)cc2)CC1)C(=O)c1ccc(C#N)cc1,155 to 158 °C
8,CC(C)Cc1nc(-c2ccccc2)cnc1NN,109 to 110 °C
9,CS(=O)(=O)c1ccc2c(c1)[nH]c(=S)n2NC(=O)c1ccc(Cl)c(S(N)(=O)=O)c1,298 to 300 °C
10,CCCCC(Cc1ccc(OCCNC(=O)c2ccc(-c3cccc(C(=O)O)c3)cc2)cc1)C(=O)O (stereo unspecified),142 to 143 °C
11,CS(=O)(=O)c1ccc(-c2oc(CC(=O)O)nc2-c2ccc(F)cc2)cc1,118 to 120 °C
12,CCOc1cc(C(=CC#N)c2ccc(OC)c(C)c2)ccc1OC,86 to 88 °C
13,CN1C(=O)C2C3C=CC(C3)C2(c2ccc(F)c(F)c2)C1=O (stereo unspecified),116 to 120 °C
14,Cc1ccc(S(=O)(=O)NC(=O)OCCc2ccc(-n3c(C(C)(C)C)nc4c(C)nc(C)cc43)cc2)cc1,226 °C
15,C=CCn1c(C)nc2c1CC(C(=O)OCC)C1=C2NC2(CC1=O)Cc1ccccc1C2 (stereo unspecified),164 to 165 °C
16,CC(C)n1nc(-c2sc(NC(=O)c3c(Cl)cccc3Cl)nc2-c2ccccc2)ccc1=O,248 to 249 °C
17,CS(=O)(=O)c1nc(Cl)c(Cc2ccccc2)c(N2CCCC2)n1,136 to 138 °C
18,O=CNC1CCCc2sc(Br)cc21 (stereo unspecified),104 to 108 °C
19,C#CCN1C(=O)COc2cc(-c3ncc(C(F)(F)F)c(C)c3Cl)c(F)cc21,156 to 157 °C
20,O=C1c2cccc3cc4ccccc4c(c23)C(=O)N1CCCNCCCNCCCN1C(=O)c2cccc3cc4ccccc4c(c23)C1=O,140 °C
21,BrCCCCCCCCCCCCCCCCCCCCCCCCBr,105 °C
22,CN(c1ncnc2[nH]ccc12)C1CCCCC1,177 to 180 °C

row,SMILES,melting point
1,CC(C)C[C@H](NS(=O)(=O)c1ccc(N(C)C)cc1)C(=O)N[C@H](C#N)CCc1ccccc1,46 to 48 °C
2,O=C(O)CCCn1nc(-c2c(-c3ccccc3)nn3ccccc23)ccc1=O,240 °C
3,O=C1C2CCCC2=Nc2ccccc2N1CCc1ccccc1 (stereo unspecified),101 to 102 °C
4,CCOC(=O)C1=C(C(C)C)Nc2n[nH]cc2C1c1ccccc1OC (stereo unspecified),179 to 180 °C
5,NC(=O)c1c[nH]c2cccc(OCc3ccccc3)c12,176 °C
6,COc1ccc(C(=O)NC2CCCCC2)c2c1OCC2CC(=O)O (stereo unspecified),246 to 247 °C
7,COc1ccccc1C(=Cc1ccccc1[N+](=O)[O-])C(=O)O,217 to 219 °C
8,O=S(=O)(Nc1cccc2cc(C3=NCC(CCO)S3)[nH]c12)c1cccs1 (stereo unspecified),156 to 158 °C
9,COc1cccc(CNC(=O)c2nc3scc(CC(=O)Nc4ccc(C(=O)O)cc4)c3c(=O)[nH]2)c1,279 °C
10,CC(=O)Oc1c(C)c(CCC2CC(O)CC(=O)O2)c2c(c1C)CC(C)(C)O2 (stereo unspecified),126 to 128 °C
11,Cc1ccc(-c2ccc(C(=O)Nc3ccc4cc(CN5CCCC5)cnc4c3F)c(F)c2)cc1,173 °C
12,CN1CCN(C(=O)Nc2cc(Br)ccc2N2CCc3cc(Br)ccc32)CC1,118 to 120 °C
13,O=C(NCc1cccc(C(F)(F)F)c1)c1ccc2n1Cc1ccccc1N(C(=O)COc1ccc(Cl)cc1)C2,143 to 145 °C
14,N#Cc1cccc(C(=O)c2ccc(Cl)cc2)c1,142 °C
15,COc1cccc(Cc2nc3n(-c4c(Cl)cc(C=O)cc4Cl)[nH]c(C(C)C)c-3c(=O)n2)c1,212 to 214 °C
16,CCCc1c(OCC(O)CS(=O)(=O)c2ccc(CC(=O)OC)c(Cl)c2Cl)ccc(C(C)=O)c1O (stereo unspecified),122 to 125 °C
17,NC(CC1c2ccccc2Sc2ccccc21)(C(=O)O)c1ccc(C(=O)O)cc1 (stereo unspecified),251 °C
18,CC(=O)OC1CCC2(C)C(=CC=C3C2CCC2(C)C(C(C)CC#CC(C)(C)OC(C)=O)=CCC32)C1 (stereo unspecified),98 to 101 °C
19,CN1CCCC1=NC(=O)Nc1ccc(Cl)c(Cl)c1,160 °C
20,CCCC(CCC)C(=O)NCC(=O)NCCCCCNC(=O)n1cc(F)c(=O)[nH]c1=O,117 to 118 °C
21,CCSCCn1cc(C(=O)NCc2ccc(Cl)cc2)c(=O)c2cc(CN3CCOCC3)ccc21,140 to 142 °C
22,CCCC1C(C(=O)OCC)C(O)(C(F)(F)F)NC(O)(C(F)(F)F)C1C(=O)OCC (stereo unspecified),140 to 142 °C

row,SMILES,melting point
1,CN(C)CCCCC(=O)c1ccc2c(c1)C(=O)c1cc(C(=O)CCCCN(C)C)ccc1-2,150 to 151 °C
2,COc1ccc(CCCN2C=CC=C3C2=Nc2cc(C)ccc2S(=O)(=O)N3C)cc1,130 to 131 °C
3,COc1ccc(NC(=O)C(=O)N2CCC(Cc3ccccc3)CC2)cc1,144 to 146 °C
4,Cc1noc(NS(=O)(=O)c2ccc([N+](=O)[O-])cc2)c1Br,146 to 149 °C
5,CNC(=O)c1ccccc1S(=O)(=O)Cc1c(O[C@H](Cn2ccnc2)c2ccccc2)ccc2c1CCCC2=O,249 to 251 °C
6,CC(C)(CCn1cnnc1)NCC(O)c1ccc(O)c(CO)c1 (stereo unspecified),125 to 127 °C
7,O=C(O)c1cccc(OCCCc2cc(-c3ccc(C(F)(F)F)cc3)no2)c1,133 to 134 °C
8,CCCc1c(O)ccc2c(=O)cc(CCC(=O)OCC)oc12,127 to 128 °C
9,Cc1c(C(F)(F)F)cc([N+](=O)[O-])c(Cl)c1[N+](=O)[O-],81 to 82 °C
10,Cc1cc(-c2cc(C(F)(F)F)n3cnc(-c4cccnc4)c3n2)ccc1C(F)(F)F,173 °C
11,O=C(C=C(c1ccccc1)N1CNc2cccnc21)OCCC(OCCCc1ccc(Cl)cc1)C(=O)O (stereo unspecified),95 °C
12,Cc1ccc(S(=O)(=O)OCC2CNC(=O)O2)cc1 (stereo unspecified),96 to 99 °C
13,Cn1c(=O)c(-c2ccc(Cl)cc2Cl)cc2c3cc(-c4c[nH]nn4)ccc3n(C)c21,274 to 275 °C
14,COc1cccc(C(=O)O)c1NC(=O)C(C)(C)C,117 to 120 °C
15,Cc1ccc(N)c(-c2nc(C(F)(F)F)cs2)c1,100 to 103 °C
16,CCC(Br)=C(CC)S(=O)(=O)CBr,96 to 97 °C
17,COc1ccc2c(c1)cc(C(=O)c1cc3ccccc3n1S(=O)(=O)c1ccccc1)n2S(=O)(=O)c1ccccc1,205 °C
18,Cc1nc(NCC(F)(F)F)c2nc(-c3ccccc3)cc-2[nH]1,> 310 °C
19,Cc1nc(NC(=O)c2ccccc2S(C)(=O)=O)sc1C(=O)NCc1ccccc1,239 to 242 °C
20,C[C@H](NC(=O)OCc1ccccc1)C(=O)N[C@@H](C)C(=O)Nc1ccccc1,219 to 221 °C
21,COC(=O)[C@@H]1C[C@H](N=[N+]=[N-])C(=O)[C@H]2[C@@]1(C)CC[C@H]1C(=O)O[C@H](c3ccoc3)C[C@]21C,200 to 203 °C
22,CCCCOc1cc(C(=O)O)cc(S(N)(=O)=O)c1Cc1ccccc1,228 to 229 °C
